Here are results for 6 compounds from patent US10045998B2 (BASF SE, priority 2013, dated 2018).

The structures appear in SMILES notation. Where two headings read alike, the source gives them in different places.

Data set [1] can be described thus: Dynamic (water) vapour sorption (DVS), hygroscopicity. Format: physicochemical. The note with it: 25° C. As for the experimental part: DVS: Dynamic (water) vapour sorption (DVS) is performed with a SPS11-100n (“Sorptions Prüfsystem” moisture sorption instrument from Projekt Meβtechnik, Ulm, Germany, using about 20 mg of sample material in an aluminum pan with a change rate of 5% of total relative humidity per hour. Program starting value of 50% with equilibration for 2 hours, continuously lowering to 0%, equilibration (i.e. humidity kept constant), scanning from 0% to 95%, equilibration, scanning from 95% to 0%, equilibration, scanning from 0% to 95%, equilibration, and scanning to 50% relative humidity. Sample temp. 25° C.

The conditions of data set [2]: pKa of the organic acid / coformer; cited from earlier work.
Data set [3] is described as follows: Aqueous solubility in purified water, 24 h equilibration, HPLC. It counts as physicochemical. The note with it: 25° C.; for Aqueous solubility S: 24 h equilibration, effective solubility of abiraterone acetate (corrected for formula mass), LOD ca. one microgram per ml. As for the experimental part: (§1) The resulting suspension is equilibrated in a temperature-controlled Eppendorf Thermomixer Comfort shaker for 2 hours or 24 hours at 25° C. at a shaking rate of 700 rpm. After 2 hours, or 24 hours, the solid phases are recovered by filter centrifugation (0.22 μm PVDF membrane). Concentrations in the filtrate after 2 hours or 24 hours (i.e. saturated solution) are determined by HPLC using under conditions given in the below Table; limit of detection (LOD) is ca. one microgram per ml.
(§2) For the results in Table a), the medium is purified water.

For data set [4] the following is noted: recent publications; quick absorption of a small fraction of the dose; cited from earlier work.
The nature of data set [5]: Solubility of abiraterone acetate in phosphate buffer and various amounts of organic acids. It counts as physicochemical. The note with it: for solubility: thermodynamic from solid, read-out: Solubility S. How it is done: as §1, §2
For data set [6] the following is noted: biopharmaceutics classification system; report EMA/CHMP/542871/2011; cited from earlier work.

As for `CC(=O)O[C@H]1CC[C@@]2(C)C(=CC[C@@H]3[C@@H]2CC[C@]2(C)C(c4cccnc4)=CC[C@@H]32)C1.COc1cc(C(=O)O)ccc1O` [Example 8], in data set [1], the “water up-take at 80% r.h.” value was “about 0.2%” and the “maximum water up-take at 95% r.h.” value is “less than 0.4%”.

Turning to `O=C(O)[C@H](O)[C@@H](O)C(=O)O` [L-Tartaric acid, L-tartaric acid], in data set [2], the pKa entry is “L-Tartaric acid (2.95)”.

In the case of `CC(=O)O[C@H]1CC[C@@]2(C)C(=CC[C@@H]3[C@@H]2CC[C@]2(C)C(c4cccnc4)=CC[C@@H]32)C1.O=C(O)CC(O)C(=O)O` [Example 3], the “Aqueous solubility S” value in data set [3] is 13.8 microgram/ml. Moreover, the “maximum water up-take at 95% r.h.” value in data set [1] was “less than 4%”.

With `CC(=O)O[C@H]1CC[C@@]2(C)C(=CC[C@@H]3[C@@H]2CC[C@]2(C)C(c4cccnc4)=CC[C@@H]32)C1` [Abiraterone acetate, (3β)-17-(3-pyridinyl)androsta-5,16-dien-3-yl acetate], the “Aqueous solubility S” value in data set [3] is reported as “<LOD”. Besides, in data set [4], the “median peak concentration, time after dosing” value is 2 h. Besides, the solubility in data set [5] (pH 3.1, aqueous buffer, phosphate buffer, no acid added, 25° C.) worked out at 2 µg/mL; in data set [5] (phosphate buffer with ascorbic acid, pH 2.4, aqueous buffer, phosphate buffer, ascorbic acid 0.5 mol/L, 25° C.), 33 µg/mL; in data set [5] (phosphate buffer with ascorbic acid, pH 2.8, aqueous buffer, phosphate buffer, ascorbic acid 0.1 mol/L, 25° C.) it was 5 µg/mL; in data set [5] (phosphate buffer with citric acid, 25 °C, pH 2.3, aqueous buffer) it was 14 µg/mL. The pH in data set [5] (phosphate buffer, ascorbic acid 0.1 mol/L) was 2.8; in data set [5] (phosphate buffer, ascorbic acid 0.5 mol/L) it was 2.4; in data set [5] (phosphate buffer, citric acid 0.5 mol/L), 2.3; in data set [5] (phosphate buffer, no acid added), 3.1. Besides, the BCS class entry in data set [6] is “class IV”.

As to `CC(=O)OC1CCC2(C)C(=CCC3C2CCC2(C)C(c4cccnc4)=CCC32)C1.O=C1NS(=O)(=O)c2ccccc21` (centres unmarked) [Example 6], in data set [1], the “water up-take at 80% r.h.” value fell in the range of 0.1 to 0.2% and the “maximum water up-take at 95% r.h.” value is reported as “less than 0.4%”.

As to `O=C(O)/C=C\C(=O)O` [Example 4, Maleic acid], the “Aqueous solubility S” value in data set [3] came out at 14.4 microgram/ml. For the same compound, the “pH of the saturated solution” value in data set [3] (after 24 h equilibration) is on record as 2.3.
